Test results: patent US20220033418A1, “HETEROCYCLENE DERIVATIVES AS PEST CONTROL AGENTS” (Bayer Aktiengesellschaft, priority 2018, published 2022)

Legend:
[1] = log P by reversed-phase HPLC, acidic range; assay type: physicochemical; settings: reversed-phase C18 HPLC column, formic acid in water/acetonitrile
Protocol: The log P values were determined according to EEC Directive 79/831 Annex V.A8 by HPLC (high-performance liquid chromatography) on a reversed-phase column (C18) using the following methods: ^[a] The log P value is determined by LC-UV measurement in the acidic range using 0.9 ml/1 formic acid in water and 1.0 ml/1 formic acid in acetonitrile as mobile phases (linear gradient from 10% acetonitrile to 95% acetonitrile). Calibration was carried out using a homologous series of straight-chain alkan-2-ones (having 3 to 16 carbon atoms) with known log P values. The values between successive alkanones are determined by linear regression.

[2] = system: Spodoptera frugiperda; assay: Spodoptera frugiperda spray test; assay type: in vivo; settings: 100 g/ha, corn leaf disks, after 7 days
Protocol: Spodoptera frugiperda—Spray Test Solvent: 78.0 parts by weight of acetone • • 1.5 parts by weight of dimethylformamide Emulsifier: alkylaryl polyglycol ether To produce a suitable active compound formulation, 1 part by weight of active compound is dissolved using the stated parts by weight of solvent and made up with water containing an emulsifier concentration of 1000 ppm until the desired concentration is attained. To produce further test concentrations, the formulation is diluted with emulsifier-containing water. Leaf disks of corn (Zea mays) are sprayed with an active compound formulation of the desired concentration and, after drying, populated with caterpillars of the fall armyworm (Spodoptera frugiperda). After 7 days, the efficacy in % is determined. 100% means that all the caterpillars have been killed; 0% means that no caterpillar has been killed.

[3] = system: Myzus persicae; assay: Myzus persicae spray test (MYZUPE), comparative, bell pepper plants; assay type: in vivo; settings: 144 h, 6 dat (days after treatment), read-out: % Efficacy MYZUPE
Protocol: Myzus persicae—Spray Test (MYZUPE) Solvent: 14 parts by weight of dimethylformamide Emulsifier: alkylaryl polyglycol ether To produce a suitable active compound formulation, 1 part by weight of active compound is dissolved using the stated parts by weight of solvent and made up with water containing an emulsifier concentration of 1000 ppm until the desired concentration is attained. To produce further test concentrations, the formulation is diluted with emulsifier-containing water. If the addition of ammonium salts or/and penetrants is required, these are each added in a concentration of 1000 ppm to the formulation solution. Bell pepper plants (Capsicum annuum) severely infested with the green peach aphid (Myzus persicae) are treated by spraying with the active compound formulation in the desired concentration. After the desired time, the kill in % is determined. 100% means that all the animals have been killed; 0% means that no animals have been killed.

[4] = system: Diabrotica balteata; assay: Diabrotica balteata drench test (DIABBA), comparative; assay type: in vivo; settings: soil, 192 h, 8 dat (days after treatment), read-out: % Efficacy DIABBA
Protocol: Diabrotica balteata—Drench Test (DIABBA) Solvent: 7 parts by weight of dimethylformamide Emulsifier: 2 parts by weight of alkylaryl polyglycol ether To produce a suitable active compound preparation, 1 part by weight of active compound is mixed with the specified amounts of solvent and emulsifier, and the concentrate is diluted with water to the desired concentration, it being necessary to include the volume of soil which is drenched in the calculation. It should be ensured that a concentration of 40 ppm of emulsifier in the soil is not exceeded. To produce further test concentrations, water is used for dilution. In each case 5 […] (Zea mays) are sown into pots filled with earth, and the next day the pots are watered with the active compound preparation of the desired concentration. After one day, about 25 L2 larvae of the banded cucumber beetle (Diabrotica balteata) are added. After 8 days, the efficacy in % is determined. 100% means that all 5 plants have germinated and grown; 0% means that none of the plants has emerged.

[5] = system: Myzus persicae; assay: Myzus persicae oral test; assay type: in vivo; settings: 4 ppm, after 5 days
Protocol: Myzus persicae—Oral Test Solvent: 100 parts by weight of acetone To produce a suitable active compound formulation, 1 part by weight of active compound is dissolved using the specified parts by weight of solvent and made up with water until the desired concentration is attained. 50 μl of the active compound preparation are transferred into microtitre plates and made up to a final volume of 200 μl with 150 μl of IPL41 insect medium (33%+15% sugar). Subsequently, the plates are sealed with parafilm, which a mixed population of green peach aphids (Myzus persicae) within a second microtitre plate is able to puncture and imbibe the solution through. After 5 days, the efficacy in % is determined. 100% means that all the aphids have been killed; 0% means that no aphids have been killed.

[6] = system: Phaedon cochleariae; assay: Phaedon cochleariae spray test; assay type: in vivo; settings: 100 g/ha, Chinese cabbage leaf disks, after 7 days
Protocol: Phaedon cochleariae—Spray Test
Solvent: 78.0 parts by weight of acetone • • 1.5 parts by weight of dimethylformamide
Emulsifier: alkylaryl polyglycol ether
To produce a suitable active compound formulation, 1 part by weight of active compound is dissolved using the stated parts by weight of solvent and made up with water containing an emulsifier concentration of 1000 ppm until the desired concentration is attained. To produce further test concentrations, the formulation is diluted with emulsifier-containing water.
Disks of Chinese cabbage leaves (Brassica pekinensis) are sprayed with an active compound formulation of the desired concentration and, after drying, populated with larvae of the mustard beetle (Phaedon cochleariae).
After 7 days, the efficacy in % is determined. 100% means that all the beetle larvae have been killed; 0% means that no beetle larvae have been killed.

[7] = system: Myzus persicae; assay: Myzus persicae spray test (Chinese cabbage leaf disks); assay type: in vivo; settings: 100 g/ha, after 5 days
Protocol: Myzus persicae—Spray Test Solvent: 78 parts by weight of acetone • • 1.5 parts by weight of dimethylformamide Emulsifier: alkylaryl polyglycol ether To produce a suitable active compound formulation, 1 part by weight of active compound is dissolved using the stated parts by weight of solvent and made up with water containing an emulsifier concentration of 1000 ppm until the desired concentration is attained. To produce further test concentrations, the formulation is diluted with emulsifier-containing water. Disks of Chinese cabbage leaves (Brassica pekinensis) infested by all stages of the green peach aphid (Myzus persicae) are sprayed with an active compound formulation of the desired concentration. After 5 days, the efficacy in % is determined. 100% means that all the aphids have been killed; 0% means that no aphids have been killed.

[8] = system: Ctenocephalides felis; assay: Ctenocephalides felis oral test; assay type: in vivo; settings: 100 ppm, oral via blood, after 2 days
Protocol: Ctenocephalides felis—Oral Test
Solvent: dimethyl sulfoxide
To produce a suitable active compound formulation, 10 mg of active compound are mixed with 0.5 ml of dimethyl sulfoxide. Dilution with citrated cattle blood gives the desired concentration.
About 20 unfed adult cat fleas (Ctenocephalides fells) are placed into a chamber which is closed at the top and bottom with gauze. A metal cylinder whose bottom end is closed with parafilm is placed onto the chamber. The cylinder contains the blood/active compound formulation, which can be imbibed by the fleas through the parafilm membrane.
After 2 days, the kill in % is determined. 100% means that all of the fleas have been killed; 0% means that none of the fleas have been killed.

[9] = system: Diabrotica balteata; assay: Diabrotica balteata spray test; assay type: in vivo; settings: 500 g/ha (=160 μg/cavity), after 7 days
Protocol: Diabrotica balteata—Spray Test Solvent: 78 parts by weight of acetone • • 1.5 parts by weight of dimethylformamide Emulsifier: alkylaryl polyglycol ether To produce a suitable active compound formulation, 1 part by weight of active compound is dissolved using the stated parts by weight of solvent and made up with water containing an emulsifier concentration of 1000 ppm until the desired concentration is attained. To produce further test concentrations, the formulation is diluted with emulsifier-containing water. Pre-swollen wheat grains (Triticum aestivum) are incubated in a multiwell plate filled with agar and a little water for one day (5 seed grains per cavity). The germinated wheat grains are sprayed with an active compound formulation of the desired concentration. Subsequently, each cavity is infected with 10-20 beetle larvae of Diabrotica balteata. After 7 days, the efficacy in % is determined. 100% means that all wheat plants have grown as in the untreated, uninfected control; 0% means that no wheat plant has grown.

[10] = system: Boophilus microplus; assay: Boophilus microplus injection test; assay type: in vivo; settings: 20 μg/animal, assessed after 7 days
Protocol: Boophilus microplus—Injection Test Solvent: dimethyl sulfoxide To produce a suitable active compound formulation, 10 mg of active compound are mixed with 0.5 ml of solvent and the concentrate is diluted to the desired concentration with solvent. 1 μl of the active compound solution is injected into the abdomen of 5 engorged adult female cattle ticks (Boophilus microplus). The animals are transferred into dishes and kept in a climate-controlled room. Efficacy is assessed after 7 days by laying of fertile eggs. Eggs which are not visibly fertile are stored in a climate-controlled cabinet until the larvae hatch after about 42 days. An efficacy of 100% means that none of the ticks has laid any fertile eggs; 0% means that all the eggs are fertile.

chromatographic logP [1] | SMILES | efficacy [2] [%] | Emax at 0.8 ppm [3] [%] | Emax at 0.8 ppm [4] [%] | efficacy [5] [%] | efficacy [6] [%] | efficacy [7] [%] | efficacy (kill in %) [8] [%] | efficacy [9] [%] | efficacy (no laying of fertile eggs) [10] [%]
3.9 | Cn1c(-c2nn3cc(C4(C#N)CC4)ccc3c2Br)nc2cc(OC(F)(F)F)cnc21 [1-[3-Bromo-2-[3-methyl-6-(trifluoromethoxy)imidazo[4,5-b]pyridin-2-yl]pyrazolo[1,5-a]pyridin-6-yl]cyclopropanecarbonitrile] | – | – | – | – | – | – | – | – | –
3.18 | CCS(=O)(=O)c1c(-c2nc3cc(OC(F)(F)F)cnc3n2C)nn2cc(C3(C#N)CC3)ccc12 [Example I-1, 1-[3-Ethylsulfonyl-2-[3-methyl-6-(trifluoromethoxy)imidazo[4,5-b]pyridin-2-yl]pyrazolo[1,5-a]pyridin-6-yl]cyclopropanecarbonitrile] | 100 | 100 | 80 | 100 | 100 | 100 | 100 | – | –
3.29 | CCS(=O)(=O)c1c(-c2nc3cc(OC(F)(F)F)ccc3n2C)nn2cc(C3(C#N)CC3)ccc12 [Example I-2, 1-[3-Ethylsulfonyl-2-[1-methyl-5-(trifluoromethoxy)benzimidazol-2-yl]pyrazolo[1,5-a]pyridin-6-yl]cyclopropanecarbonitrile] | 100 | – | – | 100 | – | – | – | 100 | –
3.18 | CCS(=O)(=O)c1c(-c2nc3cc4c(cc3n2C)OC(F)(F)O4)nn2cc(C3(C#N)CC3)ccc12 [Example I-3, 1-[2-(2,2-Difluoro-7-methyl-[1,3]dioxolo[4,5-f]benzimidazol-6-yl)-3-ethylsulfonylpyrazolo[1,5-a]pyridin-6-yl]cyclopropanecarbonitrile] | 100 | – | – | 100 | – | – | – | 100 | –
3.22 | CCS(=O)(=O)c1c(-c2nc3cc4c(nc3n2C)OC(F)(F)O4)nn2cc(C3(C#N)CC3)ccc12 [Example I-4, 1-[3-Ethylsulfonyl-2-[2,2-difluoro-7-methyl-[1,3]dioxoloimidazo[4,5-b]pyridin-6-yl]pyrazolo[1,5-a]pyridin-6-yl]cyclopropanecarbonitrile] | 100 | – | – | 100 | 100 | 90 | 100 | – | 80
3.76 | CCS(=O)(=O)c1c(-c2nc3cc(OC(F)(F)C(F)(F)F)cnc3n2C)nn2cc(C3(C#N)CC3)ccc12 [Example I-5, 1-[3-Ethylsulfonyl-2-[3-methyl-6-(1,1,2,2,2-pentafluoroethoxy)imidazo[4,5-b]pyridin-2-yl]pyrazolo[1,5-a]pyridin-6-yl]cyclopropanecarbonitrile] | 100 | – | – | – | – | – | – | 100 | –
– | CCS(=O)(=O)c1c(-c2nc3cc(C(F)(F)F)cnc3n2C)nn2cc(C3(C#N)CC3)ccc12 [prior art according to WO2017/155103, reference compound] | – | 40 | 50 | – | – | – | – | – | –
